Reference: US7166688B1, “Chelation compositions” (LidoChem, Inc., priority 2000, dated 2007)

Columns and labels:
[1] = system: Wheat; assay: Foliar applied IDS chelated minerals, tissue analysis, wheat; format: in vivo
Protocol: (§1) An experimental trial was completed testing the efficacy of the Iminodisuccinates (IDS) of this invention on five different crops. Below is the protocol and tissue analysis for both soil and foliar applied iminodisuccinate chelated mineral salts.
(§2) A stock solution for foliar application was prepared by blending 6000 ml of water with T-DAT 09, (Harcross Chemical Company, USA) a surfactant, added to spray mix at 2 drops per liter. • 1). 5 ml of 9% zinc was added to 1 liter of stock solution. • 2). 5 ml of 5% copper was added to 1 liter of stock solution. • 3). 5 ml of 5% manganese was added to 1 liter of stock solution. • 4). 5 ml of 5% Iron was added to 1 liter of stock solution. • 5). 4 ml of 9% zinc, 1 ml of 5% copper, 1 ml of 5% manganese, and 1 ml of 5% iron was added to 1 liter of stock solution. • 6). Stock solution without further addition.
(§3) All plants were sprayed until wet. Harvested material was placed in an oven for one day and sent to the lab for tissue analysis. Harvesting occurred thirty days after planting and some plants had not grown enough to get complete lab results reported. The harvested corn plants were cut at the whirl to insure only new leaves would be tested. The soybeans were clipped above the cotyledon. The alfalfa and clover were removed from the soil and the roots were removed. The wheat was cut at the tillering node.

[2] = system: Clover; assay: Foliar applied IDS chelated minerals, tissue analysis, clover; format: in vivo
Protocol: as §1, §2, §3

[3] = system: Wheat; assay: Soil applied IDS chelated minerals with 10-34-0, tissue analysis, wheat; format: in vivo
Protocol: as §1
(§4) A). The control pots were watered without any further treatments.
(§5) B). An ammonium polyphosphate stock solution was prepared by adding 50 ml of the 10-34-0 to 4000 ml of water. Treated plants received 100 ml of the stock solution.
(§6) (C). The Zinc stock solution was prepared by blending 10 ml of IDS chelated 9% Zinc to a blend of 50 ml of 10-34-0 with 4000 ml of water. Treated plants received 100 ml of the zinc stock solution.
(§7) (D). The mixture of IDS chelated micronutrients was prepared by adding 4 ml of 9% Zinc, 1 ml of 5% Copper, 1 ml of 5% manganese, and 1 ml of 5% Iron. This mixture was then blended with 4000 ml of water and 50 ml of 10-34-0.
as §3

[4] = system: Soybean; assay: Foliar applied IDS chelated minerals, tissue analysis, soybeans; format: in vivo
Protocol: as §1, §2, §3

[5] = system: Clover; assay: Soil applied IDS chelated minerals with 10-34-0, tissue analysis, clover; format: in vivo
Protocol: as §1, §4, §5, §6, §7, §3

[6] = system: Corn; assay: Soil applied IDS chelated minerals with 10-34-0, tissue analysis, corn; format: in vivo
Protocol: as §1, §4, §5, §6, §7, §3

[7] = system: Corn; assay: Foliar applied IDS chelated minerals, tissue analysis, corn; format: in vivo
Protocol: as §1, §2, §3

[8] = Iron chelation, clear solution / precipitate test; format: physicochemical; conditions: for appearance of solution / precipitates: 500 ml water, 10 ml 1.8 M ferric nitrate, pH 10, 10 grams potassium phosphate
Protocol: A five percent chelated iron solution was prepared by blending 18 ml of water with 100 grams of a (10% Fe) ferric nitrate solution. Once in solution, 82 grams of the compound produced in Example 10 was added.
In 25 ml of water, 20 ml of a 1.8M ferric nitrate was added. Once in solution, 30 ml of the diethanolsuccinamide amino ethanol solution produced in Example 17 was added and the pH of the blend was adjusted to 9.2. Then 1 gram of potassium phosphate was added to the mixture.
Five drops of 1.8 M ferric nitrate were added to one liter of water and mechanically blended. Then 10 grams of potassium phosphate were added to the solution and allowed to form insoluble potassium salts.
In 400 ml of water, 20 ml of a 10% ferric nitrate solution were added, and 20 ml of the product from example 25 were added. With mechanical stirring, 40 grams of monopotassium phosphate was added the mix. The pH of the solution was then adjusted to 2 with HCl. The pH of the solution was then gradually raised with the addition of base to a pH of 10.
In 400 ml of water, 10 ml of 1.8 M ferric nitrate solution were added and 20 ml of the product from example 28 were added. With mechanical stirring, 20 grams of monopotassium phosphate was added to the mix. The pH of the solution was then adjusted to 2 with HCL. The pH of the solution was then gradually raised with the addition of Monoethanolamine to a pH of 10.
To a beaker containing one liter of water, 20 grams of potassium phosphate were added to form a clear solution.
Thirty grams of 1.8 M ferric nitrate were added to 100 ml of water. The pH of the solution was lowered to 4 with phosphorous acid, and then 5 grams of Potassium phosphate were then added to the blend. Later 30 ml of the solution produced in example 29 was added.
One hundred ml of the solution prepared in Example 41 was added to 500 ml of water and blended. 10 ml of 1.8-M ferric nitrate was then added to the mixture. […] The potassium salt of maleic acid was tested as a chelating agent.
In a separate flask 20 grams of maleic anhydride were blended in 500 ml of water. Potassium hydroxide was then added to the blend to raise the pH to 10. Later ten ml of 1.8M ferric nitrate was added to the mix and 10 grams of potassium phosphate was also blended in. […] The contents of the flask were then blended again while MEA was added to the mix.

[9] = system: pepper plants; assay: IDS versus EDTA chelates applied to the soil of pepper plants, tissue analysis; format: in vivo
Protocol: Below is the protocol and tissue analysis for the soil-applied iminodisuccinate and EDTA chelated mineral salts. Treatments: Control—no fertilizer 15-30-15 (fertilizer) alone 15-30-15 plus Cu IDS […] 15-30-15 plus Mn IDS […] 15-30-15 plus Zn IDS […] The standard fertilizer contained no micronutrients. Fertilizer was Hyponex 15-30-15. Each treatment was replicated 3 times. Soil treatments were applied as 50 ml per of the dilute blend of this invention. The pepper plants were transplanted into 1-gallon containers and grown until a suitable size. Plants were treated with the soil-applied chelate. Tissue samples were taken 30 days after the soil treatment had been applied. […] One gallon of fertilizer was poured over three replications of each set in the trial.

COPPER
copper in plant tissue, TREATED ([1]; harvested 30 days after planting, control 10.8): 157 parts per million | copper in plant tissue, CHANGE ([1]; treated minus control 10.8): 146.2 parts per million | copper in plant tissue, TREATED ([2]; harvested 30 days after planting, control 9.64): 227 parts per million | copper in plant tissue, CHANGE ([2]; treated minus control 9.64): 217.36 parts per million | copper in plant tissue, TREATED ([3]; soil applied with 10-34-0, harvested 30 days after planting, control 6.79): 12.1 | copper in plant tissue, CHANGE ([3]; soil applied, treated minus control 6.79): 5.31 | copper in plant tissue, % change ([3]; soil applied, versus control 6.79): 78% | copper in plant tissue, TREATED ([4]; harvested 30 days after planting, control 4.74): 937 parts per million | copper in plant tissue, CHANGE ([4]; treated minus control 4.74): 932.26 parts per million | copper in plant tissue, TREATED ([5]; soil applied with 10-34-0, harvested 30 days after planting, control 8.91): 20.2 | copper in plant tissue, CHANGE ([5]; soil applied, treated minus control 8.91): 11.29 | copper in plant tissue, % change ([5]; soil applied, versus control 8.91): 127% | copper in plant tissue, TREATED ([6]; soil applied with 10-34-0, harvested 30 days after planting, control 5.43): 11.7 | copper in plant tissue, CHANGE ([6]; soil applied, treated minus control 5.43): 6.27 | copper in plant tissue, % ([6]; soil applied, versus control 5.43): 115% | copper in plant tissue, TREATED ([7]; harvested 30 days after planting, control 5.2): 300 parts per million | copper in plant tissue, CHANGE ([7]; treated minus control 5.2): 294.8 parts per million | copper in plant tissue, % change ([7]; versus control 5.2): 5669%

[Mn+2]
manganese in plant tissue, TREATED ([1]; harvested 30 days after planting, control 72.1): 379 parts per million | manganese in plant tissue, CHANGE ([1]; treated minus control 72.1): 306.9 parts per million | manganese in plant tissue, TREATED ([2]; harvested 30 days after planting, control 168): 510 parts per million | manganese in plant tissue, CHANGE ([2]; treated minus control 168): 342 parts per million | manganese in plant tissue, TREATED ([3]; soil applied with 10-34-0, harvested 30 days after planting, control 71.8): 76.2 | manganese in plant tissue, CHANGE ([3]; soil applied, treated minus control 71.8): 4.4 | manganese in plant tissue, % change ([3]; soil applied, versus control 71.8): 6% | manganese in plant tissue, TREATED ([4]; harvested 30 days after planting, control 230): 544 parts per million | manganese in plant tissue, CHANGE ([4]; treated minus control 230): 314 parts per million | manganese in plant tissue, % change ([4]; versus control 230): 137% | manganese in plant tissue, TREATED ([5]; soil applied with 10-34-0, harvested 30 days after planting, control 154): 98.4 | manganese in plant tissue, TREATED ([6]; soil applied with 10-34-0, harvested 30 days after planting, control 128): 80.1 | manganese in plant tissue, TREATED ([7]; harvested 30 days after planting, control 99.1): 310 parts per million | manganese in plant tissue, CHANGE ([7]; treated minus control 99.1): 210.9 parts per million | manganese in plant tissue, % change ([7]; versus control 99.1): 213%

O=C([O-])CC(C(=O)[O-])N(CCO)C(CC(=O)[O-])C(=O)[O-].[K+].[K+].[K+].[K+] (stereo not drawn) [Example 41, N,N-disuccinic-amino-ethanol tetra potassium salt]
appearance of solution / precipitates [8]: orange-red clear solution without precipitates

IRON
iron in plant tissue, TREATED ([1]; harvested 30 days after planting, control 94.5): 334 parts per million | iron in plant tissue, CHANGE ([1]; treated minus control 94.5): 239.5 parts per million | iron in plant tissue, TREATED ([2]; harvested 30 days after planting, control 130): 731 parts per million | iron in plant tissue, CHANGE ([2]; treated minus control 130): 601 parts per million | iron in plant tissue, TREATED ([3]; soil applied with 10-34-0, harvested 30 days after planting, control 79.3): 90.9 | iron in plant tissue, CHANGE ([3]; soil applied, treated minus control 79.3): 11.6 | iron in plant tissue, % change ([3]; soil applied, versus control 79.3): 15% | iron in plant tissue, TREATED ([4]; harvested 30 days after planting, control 111): 557 parts per million | iron in plant tissue, CHANGE ([4]; treated minus control 111): 446 parts per million | iron in plant tissue, % change ([4]; versus control 111): 402% | iron in plant tissue, TREATED ([5]; soil applied with 10-34-0, harvested 30 days after planting, control 143): 224 | iron in plant tissue, CHANGE ([5]; soil applied, treated minus control 143): 81 | iron in plant tissue, % change ([5]; soil applied, versus control 143): 57% | iron in plant tissue, TREATED ([6]; soil applied with 10-34-0, harvested 30 days after planting, control 45.4): 82.2 | iron in plant tissue, CHANGE ([6]; soil applied, treated minus control 45.4): 36.8 | iron in plant tissue, % ([6]; soil applied, versus control 45.4): 81% | iron in plant tissue, TREATED ([7]; harvested 30 days after planting, control 36.9): 494 parts per million | iron in plant tissue, CHANGE ([7]; treated minus control 36.9): 457.1 parts per million | iron in plant tissue, % change ([7]; versus control 36.9): 1239%

O=C([O-])/C=C\C(=O)[O-].[K+].[K+] [potassium salt of maleic acid, reference compound]
appearance of solution / precipitates [8]: a rust colored solid precipitated

EDTA [reference compound]
copper in tissue, TREATED ([9]; soil applied with 15-30-15, tissue 30 days after treatment, control 8.0): 12.9 | TREATED (dry weight) ([9]; soil applied, control 4.8): 6.2 | TREATED DRY ([9]; soil applied, dry weight, CONTROL DRY 4.8): 6.1 | copper in tissue, TREATED ADJUSTED ([9]; soil applied, tissue level times dry weight, control adjusted 38.08): 80.03 | copper in tissue, CHANGE IN (adjusted) ([9]; soil applied, treated adjusted minus control adjusted 38.08): 41.95 | CHANGE IN WEIGHT ([9]; soil applied, treated dry minus control dry 4.8): 1.36 | copper in tissue, % CHANGE (adjusted) ([9]; soil applied, versus control adjusted 38.08): 110% | % CHANGE (dry weight) ([9]; soil applied, versus control dry 4.8): 29%

NCCO [MEA, monoethanolamine, reference compound]
redissolution of the precipitate on adding MEA ([8]; MEA added to the potassium maleate / ferric nitrate / potassium phosphate mix at pH 10): The precipitate never went back into solution
